Measurements: paper PMC6340895 (Protein & Cell, 2019)

Key:
[1] = test system: pseudotype of GTOV, JUNV, MACV, SABV, CHAPV, LCMV, LUJV, MOPV, EBOV, and MARV; assay type: cell-based
LASV = details: cited from earlier work
TfR1 = assay type: cell-based
SABVpv = test: organism not typed; assay type: cell-based, Sabiá virus (SABV); details: read-out: SABVpv IC50
[2] = test system: pseudotype of NW pathogenic arenaviruses; assay type: cell-based
JUNVpv = test: organism not typed; assay type: cell-based, Junín virus (JUNV); details: read-out: JUNVpv IC50
CHAPVpv = test: microbe, parasite or virus in culture; assay type: cell-based, Chapare virus (CHAPV); details: Mammarenavirus chapareense, read-out: CHAPVpv IC50

| SMILES | CC50 (in vitro) | also measured |
| --- | --- | --- |
| C/C(=N\NC(=O)CCc1ccccc1C(F)(F)F)c1ccc(NC(=O)c2ccco2)cc1 [compound 30, O=C(CCC1=C(C(F)(F)F)C=CC=C1)N/N=C(C)/C2=CC=C(NC(C3=CC=CO3)=O)C=C2] | > 30 µM |  |
| C/C(=N\NC(=O)CCc1ccc(F)cc1)c1ccc(NC(=O)c2ccco2)cc1 [compound 26, O=C(CCC1=CC=C(F)C=C1)N/N=C(C)/C2=CC=C(NC(C3=CC=CO3)=O)C=C2] | > 30 µM |  |
| C/C(=N\NC(=O)CCCc1ccc(C)cc1)c1ccc(NC(=O)c2ccco2)cc1 [compound 23, O=C(CCCC1=CC=C(C)C=C1)N/N=C(C)/C2=CC=C(NC(C3=CC=CO3)=O)C=C2] | > 30 µM |  |
| C/C(=N\NC(=O)CCc1ccc(C)cc1)c1ccc(NC(=O)c2ccco2)cc1 [compound 9, O=C(CCC1=CC=C(C)C=C1)N/N=C(C)/C2=CC=C(NC(C3=CC=CO3)=O)C=C2] | > 30 µM |  |
| C/C(=N\NC(=O)CCc1cccc(C)c1)c1ccc(NC(=O)c2ccco2)cc1 [compound 21, O=C(CCC1=CC(C)=CC=C1)N/N=C(C)/C2=CC=C(NC(C3=CC=CO3)=O)C=C2] | > 30 µM | Antiviral specificity across pseudotype panel [1]: largely maintained LASV specificity |
| C/C(=N\NC(=O)CCc1ccccc1)c1ccc(NC(=O)c2ccco2)cc1 [compound 3, O=C(CCC1=CC=CC=C1)N/N=C(C)/C2=CC=C(NC(C3=CC=CO3)=O)C=C2] | > 30 µM |  |
| C/C(=N\NC(=O)C1CC1c1ccccc1)c1ccc(NC(=O)c2ccco2)cc1 (stereo not shown) [ST-161] |  | Antiviral specificity (LASV): LASV specific |
| C/C(=N\NC(=O)CCc1ccccc1C)c1ccc(NC(=O)c2ccco2)cc1 [compound 20, O=C(CCC1=C(C)C=CC=C1)N/N=C(C)/C2=CC=C(NC(C3=CC=CO3)=O)C=C2] | > 30 µM |  |
| C/C(=N\NC(=O)CCCCc1ccccc1)c1ccc(NC(=O)c2ccco2)cc1 [compound 27, O=C(CCCCC1=CC=CC=C1)N/N=C(C)/C2=CC=C(NC(C3=CC=CO3)=O)C=C2] | > 30 µM |  |
| COc1ccc(CCC(=O)N/N=C(\C)c2ccc(NC(=O)c3ccco3)cc2)cc1 [compound 22, O=C(CCC1=CC=C(OC)C=C1)N/N=C(C)/C2=CC=C(NC(C3=CC=CO3)=O)C=C2] | > 30 µM |  |
| C/C(=N\NC(=O)Cc1ccc(Cl)cc1Cl)c1ccc(NC(=O)c2ccco2)cc1 [compound 8, O=C(CC1=C(Cl)C=C(Cl)C=C1)N/N=C(C)/C2=CC=C(NC(C3=CC=CO3)=O)C=C2] | > 30 µM |  |
| COc1ccc(CC(=O)N/N=C(\C)c2ccc(NC(=O)c3ccco3)cc2)cc1 [compound 54, O=C(CC1=CC=C(OC)C=C1)N/N=C(C)/C2=CC=C(NC(C3=CC=CO3)=O)C=C2] | > 30 µM |  |
| COc1ccc(CCC(=O)N/N=C(\C)c2ccc(NC(=O)c3ccco3)cc2)c(OC)c1 [compound 28, O=C(CCC1=C(OC)C=C(OC)C=C1)N/N=C(C)/C2=CC=C(NC(C3=CC=CO3)=O)C=C2] | > 30 µM |  |
| C/C(=N\NC(=O)Cc1ccccc1)c1ccc(NC(=O)c2ccco2)cc1 [compound 7, O=C(CC1=CC=CC=C1)N/N=C(C)/C2=CC=C(NC(C3=CC=CO3)=O)C=C2] | > 30 µM |  |
| C/C(=N\NC(=O)CCc1ccc([N+](=O)[O-])cc1)c1ccc(NC(=O)c2ccco2)cc1 [compound 24, O=C(CCC1=CC=C([N+]([O-])=O)C=C1)N/N=C(C)/C2=CC=C(NC(C3=CC=CO3)=O)C=C2] | > 30 µM |  |
| C/C(=N\NC(=O)CCc1ccc(Br)cc1)c1ccc(NC(=O)c2ccco2)cc1 [compound 29, O=C(CCC1=CC=C(Br)C=C1)N/N=C(C)/C2=CC=C(NC(C3=CC=CO3)=O)C=C2] | > 30 µM | Antiviral specificity across pseudotype panel [1]: largely maintained LASV specificity |
| C/C(=N\NC(=O)CCCc1ccccc1)c1ccc(NC(=O)c2ccco2)cc1 [compound 56, O=C(CCCC1=CC=CC=C1)N/N=C(C)/C2=CC=C(NC(C3=CC=CO3)=O)C=C2] | > 30 µM |  |
| C/C(=N\NC(=O)CCc1cccc([N+](=O)[O-])c1)c1ccc(NC(=O)c2ccco2)cc1 [compound 25, O=C(CCC1=CC([N+]([O-])=O)=CC=C1)N/N=C(C)/C2=CC=C(NC(C3=CC=CO3)=O)C=C2] | > 30 µM |  |
| C/C(=N\NC(=O)CCc1ccc(C(C)(C)C)cc1)c1ccc(NC(=O)c2ccco2)cc1 [compound 57, O=C(CCC1=CC=C(C(C)(C)C)C=C1)N/N=C(C)/C2=CC=C(NC(C3=CC=CO3)=O)C=C2] | > 30 µM | Cell surface expression of TfR1 (TfR1): did not down-regulate; IC50 (SABVpv): 0.244 µM; Effect on binding of NW pathogenic viruses [2]: no effect; IC50 (JUNVpv): 0.096 µM; IC50 (CHAPVpv): 0.0898 µM |
| C/C(=N\NC(=O)CCc1ccccc1F)c1ccc(NC(=O)c2ccco2)cc1 [compound 10, O=C(CCC1=C(F)C=CC=C1)N/N=C(C)/C2=CC=C(NC(C3=CC=CO3)=O)C=C2] | > 30 µM |  |
| Cc1ccc(CCC(=O)CCC(C)c2ccc(NC(=O)c3ccco3)cc2)cc1 (stereo not shown) [compound 72] |  | Antiviral specificity across pseudotype panel [1]: largely maintained LASV specificity |
